Experimental data: PubChem BioAssay (NCI)
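These data come from cells grown in 96-well plates and exposed to compound for 48 hours at five concentrations. Abbreviation: GI50, concentration required for 50% inhibition of growth. TGI: concentration producing complete growth inhibition.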

Legend:
Experiment in all cases: NCI-60 cell line screen, 48 h
[1] = tested on: ACHN renal
[2] = tested on: K-562 leukemia
[3] = tested on: MDA-MB-435
[4] = tested on: NCI-H522 lung
[5] = tested on: OVCAR-5 ovarian
[6] = tested on: RPMI-8226 leukemia
[7] = tested on: SF-295 CNS
[8] = tested on: SN12C renal
[9] = tested on: TK-10 renal
[10] = tested on: UACC-257 melanoma

`Cc1cn2c(/C=C3/C(=O)Nc4ccc(F)cc43)c(C)nc2s1` showed a GI50 [1] of 17.2 µM, a TGI [1] of over 50 µM and a GI50 [2] of 1.72 µM. For the same compound, the TGI [2] was over 50 µM, the GI50 [3] was 1.26 µM and the TGI [3] was 2.97 µM. The GI50 [4] was 3.22 µM, the TGI [4] was 18.7 µM and the GI50 [5] was 14.6 µM. The TGI [5] was over 50 µM, the GI50 [6] was 20.3 µM and the TGI [6] was over 50 µM. For the same compound, the GI50 [7] was 3.76 µM, the TGI [7] was 34.6 µM and the GI50 [8] was 8.56 µM. It also gave a TGI [8] of 27.4 µM, a GI50 [9] of 22.2 µM and a TGI [9] of over 50 µM. The GI50 [10] was 36.2 µM and the TGI [10] was over 50 µM.

`C=C1CCC2C3(C)COC(c4ccc(Cl)cc4)OC3CCC2(C)C1/C=C/C1=CCOC1=O` (centres undefined) showed a GI50 [1] of 12.1 µM, a TGI [1] of 50.9 µM and a TGI [2] of over 100 µM. For the same compound, the GI50 [3] was 4.19 µM, the TGI [3] was over 100 µM and the GI50 [4] was 1.11 µM. It also gave a TGI [4] of 36.7 µM, a GI50 [5] of 70.2 µM and a TGI [5] of over 100 µM. It also gave a GI50 [6] of 0.602 µM, a TGI [6] of over 100 µM and a GI50 [7] of 1.83 µM. The TGI [7] was 22.5 µM, the GI50 [8] was 7.56 µM and the TGI [8] was over 100 µM. The GI50 [9] was 14.4 µM, the TGI [9] was over 100 µM and the GI50 [10] was 4.63 µM. The TGI [10] was over 100 µM.

`CCOC(=O)c1cc(-c2ccc(OC)c(OC)c2)[nH]c1N/N=C/c1c(Cl)cccc1Cl` gave a GI50 [1] of 3.23 µM, a TGI [1] of 16.2 µM and a GI50 [2] of 1.69 µM. The TGI [2] was over 100 µM, the GI50 [3] was 0.307 µM and the TGI [3] was 0.829 µM. It also gave a GI50 [4] of 2.27 µM, a TGI [4] of 30 µM and a GI50 [5] of 4.56 µM. It also gave a TGI [5] of 20.3 µM, a GI50 [6] of 3.31 µM and a TGI [6] of over 37.5 µM. For the same compound, the GI50 [7] was 0.461 µM, the TGI [7] was 8.31 µM and the GI50 [8] was 3.64 µM. It also gave a TGI [8] of 22.3 µM, a GI50 [9] of 2.5 µM and a TGI [9] of 11.4 µM. The GI50 [10] was 13.2 µM and the TGI [10] was over 71.9 µM.

For `CC(=O)NC(CCCCN(Cc1ccccc1)C(=O)N(CCCl)N=O)C(=O)NCc1ccccc1` (centres undefined), the TGI [1] was 41 µM, the TGI [2] was over 89.4 µM and the TGI [3] was over 100 µM. The TGI [4] was 53.8 µM, the TGI [5] was over 87.3 µM and the TGI [6] was 79 µM. The TGI [7] was 43.4 µM, the TGI [8] was over 77.8 µM and the TGI [9] was 73.9 µM. For the same compound, the TGI [10] was over 44.6 µM.

For `N#Cc1c(N)nc(N2CCSCC2)c(C#N)c1-c1ccc(O)cc1`, the GI50 [1] was 18.9 µM, the TGI [1] was 59 µM and the GI50 [2] was 19.8 µM. The TGI [2] was 58.3 µM, the GI50 [3] was 19 µM and the TGI [3] was 49.6 µM. The GI50 [4] was 22 µM, the TGI [4] was 52.7 µM and the GI50 [5] was 16.1 µM. The TGI [5] was 50 µM, the GI50 [6] was 17.3 µM and the TGI [6] was 48.5 µM. The GI50 [7] was 18.4 µM, the TGI [7] was 55.7 µM and the GI50 [8] was 19.8 µM. The TGI [8] was 50.2 µM, the GI50 [9] was 30.4 µM and the TGI [9] was over 100 µM. It also gave a GI50 [10] of 21.9 µM and a TGI [10] of 52.6 µM.

`COc1ccc(CNc2cnc3cc(N)cc(N)c3n2)cc1` showed a GI50 [1] of 17.2 µM, a TGI [1] of 32.2 µM and a GI50 [2] of 10.7 µM. The TGI [2] was 29.3 µM, the GI50 [3] was 21.7 µM and the TGI [3] was 39 µM. For the same compound, the GI50 [4] was 17.9 µM, the TGI [4] was 44.1 µM and the GI50 [5] was 18.1 µM. For the same compound, the TGI [5] was 43.6 µM, the GI50 [6] was 23 µM and the TGI [6] was 82.3 µM. For the same compound, the GI50 [7] was 21.9 µM, the TGI [7] was 55.9 µM and the GI50 [8] was 18.4 µM. The TGI [8] was 32.9 µM, the GI50 [9] was 27 µM and the TGI [9] was 64.2 µM. The GI50 [10] was 21.4 µM and the TGI [10] was 39.7 µM.

Work on `COc1cc(-c2ccc(NC(=O)NC3CC3)c(OC)c2)ccc1NC(=O)NC1CC1` yielded a GI50 [1] of 7.05 µM, a TGI [1] of over 100 µM and a GI50 [2] of 2.45 µM. It also gave a TGI [2] of over 100 µM, a GI50 [3] of 9.18 µM and a TGI [3] of over 100 µM. The GI50 [4] was 4.94 µM, the TGI [4] was over 62.5 µM and the GI50 [5] was over 100 µM. It also gave a TGI [5] of over 100 µM, a GI50 [6] of 2.47 µM and a TGI [6] of over 24.7 µM. It also gave a GI50 [7] of 4.36 µM, a TGI [7] of over 100 µM and a GI50 [8] of 18.8 µM. The TGI [8] was over 100 µM, the GI50 [9] was 13.9 µM and the TGI [9] was over 100 µM. The GI50 [10] was 12.4 µM and the TGI [10] was over 100 µM.

`O=C1C(=O)N(c2cccc(C(F)(F)F)c2)C(=O)C(=O)C1c1nc2ccccc2s1` showed a TGI [1] of over 100 µM, a TGI [2] of over 100 µM and a TGI [3] of over 100 µM. For the same compound, the TGI [4] was over 100 µM, the TGI [5] was over 100 µM and the TGI [6] was over 100 µM. For the same compound, the TGI [7] was over 100 µM, the TGI [8] was over 100 µM and the TGI [9] was over 100 µM. It also gave a TGI [10] of over 100 µM.

Work on `CC(O)CN1c2ccccc2Sc2ccc(Cl)cc21` (centres undefined) yielded a TGI [1] of over 10 µM, a TGI [2] of over 10 µM and a TGI [3] of over 10 µM. For the same compound, the TGI [4] was over 10 µM, the TGI [5] was over 10 µM and the TGI [6] was over 10 µM. It also gave a TGI [7] of over 10 µM, a TGI [8] of over 10 µM and a TGI [9] of over 10 µM. For the same compound, the TGI [10] was over 10 µM.

`CCCCCCN(C)Cc1ccc(OCCOc2ccc(CN(C)CCCCCC)cc2)cc1` was tested, and the GI50 [1] was 1.62 µM, the TGI [1] was 3.63 µM and the GI50 [2] was 0.452 µM. The TGI [2] was over 100 µM, the GI50 [3] was 1.04 µM and the TGI [3] was 2.5 µM. The GI50 [4] was 0.944 µM, the TGI [4] was 2.25 µM and the GI50 [5] was 1.46 µM. It also gave a TGI [5] of 4.03 µM, a GI50 [6] of 1.62 µM and a TGI [6] of 25.4 µM. The GI50 [7] was 1.23 µM, the TGI [7] was 2.76 µM and the GI50 [8] was 1.35 µM. It also gave a TGI [8] of 3.08 µM, a GI50 [9] of 1.29 µM and a TGI [9] of 2.6 µM. The GI50 [10] was 0.448 µM and the TGI [10] was 1.84 µM.
